Experimental findings from PubChem BioAssay (NCI) are described below.

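Interpolation was linear, between the two tested concentrations surrounding the appropriate level; five concentrations were tested over 48 hours in 96-well plates. The concentration for full growth arrest is given as TGI.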 Where only a bound is given, the exact number is not on record here.

Among the test systems are 786-0 renal; ACHN renal; BT-549 breast; CAKI-1 renal; DU-145 prostate; HCT-116 colon; K-562 leukemia; LOX IMVI melanoma; NCI-H226 lung; NCI-H23 lung; PC-3 prostate; SF-268 CNS; SK-MEL-2 melanoma; SW-620 colon; T-47D breast; TK-10 renal; UACC-257 melanoma.
Holding throughout (assay): NCI tumour cell line growth inhibition, 48 h

In the case of `Cc1ccc(-c2c(C#N)c(N)nc3c2CCS(=O)(=O)c2ccccc2-3)cc1`, the TGI in the test on 786-0 renal, in the test on ACHN renal, with BT-549 breast, with CAKI-1 renal, in the test on DU-145 prostate and in the test on HCT-116 colon was above 100 µM in each case. In addition, the TGI in the test with K-562 leukemia, in the test with LOX IMVI melanoma, in the test on NCI-H226 lung, in the test on NCI-H23 lung, with PC-3 prostate and with SF-268 CNS was above 100 µM in each case. For the same molecule, the TGI with SK-MEL-2 melanoma, with SW-620 colon, with T-47D breast, in the test on TK-10 renal and with UACC-257 melanoma was above 100 µM in each case.
Consider `c1ccc(C2OCC(OC3CCCCO3)CO2)cc1` (stereo unspecified), for which the TGI with 786-0 renal, with ACHN renal, in the test on BT-549 breast, in the test on CAKI-1 renal, with DU-145 prostate and with HCT-116 colon was above 100 µM in each case. The TGI in the test on K-562 leukemia, in the test with LOX IMVI melanoma, with NCI-H226 lung, with NCI-H23 lung, with PC-3 prostate and in the test on SF-268 CNS was above 100 µM throughout. For the same molecule, the TGI in the test on SK-MEL-2 melanoma, with SW-620 colon, with T-47D breast, in the test on TK-10 renal and with UACC-257 melanoma was above 100 µM in each case.
As for `COc1cccc(C2SCC(=O)N2c2ccc(-n3c(-c4ccccc4)nc4ccccc4c3=O)cc2)c1OC` (stereo unspecified), the TGI with 786-0 renal, with ACHN renal, in the test on BT-549 breast, with CAKI-1 renal, with DU-145 prostate and in the test with HCT-116 colon was above 100 µM each time. For the same molecule, the TGI in the test with K-562 leukemia, in the test on LOX IMVI melanoma, in the test on NCI-H226 lung, in the test with NCI-H23 lung, in the test with PC-3 prostate and in the test with SF-268 CNS was above 100 µM in each case. The TGI in the test on SK-MEL-2 melanoma, in the test on SW-620 colon, with T-47D breast, in the test with TK-10 renal and in the test on UACC-257 melanoma was above 100 µM in each case.
Turning to `COc1cc(Oc2nc3c(N)cc(C(F)(F)F)cc3nc2-c2ccccc2)cc(OC)c1OC`, the TGI was above 41.1 µM in the test on 786-0 renal; 32.5 µM in the test on ACHN renal; 34.5 µM in the test with BT-549 breast; above 45.2 µM with CAKI-1 renal; above 100 µM in the test on DU-145 prostate; above 45.3 µM with HCT-116 colon. For the same molecule, the TGI with K-562 leukemia is 6.6 µM; with LOX IMVI melanoma it was above 100 µM; in the test on NCI-H226 lung it was above 78.2 µM; in the test with NCI-H23 lung, above 63.6 µM; in the test with PC-3 prostate it was 29.5 µM; in the test with SF-268 CNS it was above 100 µM. For the same molecule, the TGI is 21 µM in the test on SK-MEL-2 melanoma; above 26.2 µM in the test with SW-620 colon; above 100 µM with T-47D breast; above 100 µM with TK-10 renal; 43.9 µM in the test on UACC-257 melanoma.
Turning to `O=C(CNC(=O)OCc1ccccc1)NCCCCC(NC(=O)OCc1ccccc1)C(=O)NC(CCCCNC(=O)CNC(=O)OCc1ccccc1)C(=O)OCc1ccccc1` (stereo unspecified), the TGI in the test on 786-0 renal, with ACHN renal, with BT-549 breast, in the test on CAKI-1 renal, in the test with DU-145 prostate and in the test on HCT-116 colon was above 62.5 µM in each case. The TGI with K-562 leukemia, in the test on LOX IMVI melanoma, with NCI-H226 lung, in the test on NCI-H23 lung, with PC-3 prostate and in the test on SF-268 CNS was above 62.5 µM each time. The TGI with SK-MEL-2 melanoma, with SW-620 colon, with T-47D breast, in the test with TK-10 renal and with UACC-257 melanoma was above 62.5 µM throughout.
For `CC(=O)O[C@H]1CCn2c3c(c(C)c21)C(=O)C(N1CC1)=C(C)C3=O`, the TGI with 786-0 renal, in the test with ACHN renal, with BT-549 breast, with CAKI-1 renal, in the test on DU-145 prostate and in the test with HCT-116 colon was above 10 µM in each case. Moreover, the TGI in the test on K-562 leukemia, in the test on LOX IMVI melanoma, in the test on NCI-H226 lung, with NCI-H23 lung, in the test with PC-3 prostate and in the test on SF-268 CNS was above 10 µM in each case. The TGI with SK-MEL-2 melanoma, in the test with SW-620 colon, in the test with T-47D breast, in the test with TK-10 renal and in the test with UACC-257 melanoma was above 10 µM throughout.
Regarding `CC(C)(CO)NC(=O)Nc1c(C(F)(F)F)cc(-c2ccccc2)[nH]c1=O`, the TGI in the test with 786-0 renal, in the test with ACHN renal, in the test with BT-549 breast, in the test with CAKI-1 renal, in the test with DU-145 prostate and in the test on HCT-116 colon was above 100 µM throughout. In addition, the TGI in the test with K-562 leukemia, with LOX IMVI melanoma, in the test on NCI-H226 lung, in the test on NCI-H23 lung, in the test on PC-3 prostate and in the test on SF-268 CNS was above 100 µM throughout. Moreover, the TGI in the test on SK-MEL-2 melanoma, with SW-620 colon, with T-47D breast, in the test on TK-10 renal and with UACC-257 melanoma was above 100 µM throughout.
Regarding `COc1cccc2c1C(=O)c1ccc3cc(CCl)cc(O)c3c1C2=O`, the TGI in the test on 786-0 renal worked out at 0.432 µM; in the test on ACHN renal it was 0.84 µM; in the test with BT-549 breast it was 1.39 µM; in the test with CAKI-1 renal it was 1.7 µM; with DU-145 prostate, 1.78 µM; with HCT-116 colon, 0.29 µM. Further, the TGI was 2.49 µM in the test on K-562 leukemia; 0.595 µM with LOX IMVI melanoma; 1.78 µM in the test on NCI-H226 lung; 1.27 µM in the test with NCI-H23 lung; 0.973 µM with PC-3 prostate; 1.42 µM in the test on SF-268 CNS. The TGI in the test on SK-MEL-2 melanoma was determined as 1.1 µM; in the test with SW-620 colon, 0.293 µM; in the test on T-47D breast, 1.73 µM; with TK-10 renal, 0.823 µM; in the test on UACC-257 melanoma, 0.698 µM.
